Columns and labels:
Histamine H3 receptor [1] = biological target: Histamine H3 receptor (Rattus norvegicus, UniProt Q9QYN8); assay: Binding potency was determined by displacement of [3H]N-alpha-methyl histamine from histamine H3 receptor of rat cortical membranes
Histamine H3 receptor [2] = biological target: Histamine H3 receptor (Homo sapiens, UniProt Q9Y5N1); assay: Binding potency was determined by displacement of [3H]N-alpha-methyl histamine from cloned human histamine H3 receptor expressed in C6 cells
Chain of Histamine H3 receptor (Homo sapiens, UniProt Q9Y5N1) (Q9Y5N1 whole entry): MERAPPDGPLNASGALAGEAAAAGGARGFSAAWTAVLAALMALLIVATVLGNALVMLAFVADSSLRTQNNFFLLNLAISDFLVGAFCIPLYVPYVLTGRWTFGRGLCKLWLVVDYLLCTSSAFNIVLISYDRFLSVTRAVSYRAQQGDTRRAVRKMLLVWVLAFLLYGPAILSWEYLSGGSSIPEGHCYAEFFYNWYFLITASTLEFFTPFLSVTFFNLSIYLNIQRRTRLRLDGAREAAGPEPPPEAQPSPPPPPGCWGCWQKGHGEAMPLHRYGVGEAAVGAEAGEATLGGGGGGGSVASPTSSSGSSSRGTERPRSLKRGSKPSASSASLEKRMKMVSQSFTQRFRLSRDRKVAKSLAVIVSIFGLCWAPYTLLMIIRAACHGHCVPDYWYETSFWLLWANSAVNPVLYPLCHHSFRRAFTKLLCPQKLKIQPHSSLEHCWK

Chain of Histamine H3 receptor (Rattus norvegicus, UniProt Q9QYN8) (Q9QYN8 whole entry): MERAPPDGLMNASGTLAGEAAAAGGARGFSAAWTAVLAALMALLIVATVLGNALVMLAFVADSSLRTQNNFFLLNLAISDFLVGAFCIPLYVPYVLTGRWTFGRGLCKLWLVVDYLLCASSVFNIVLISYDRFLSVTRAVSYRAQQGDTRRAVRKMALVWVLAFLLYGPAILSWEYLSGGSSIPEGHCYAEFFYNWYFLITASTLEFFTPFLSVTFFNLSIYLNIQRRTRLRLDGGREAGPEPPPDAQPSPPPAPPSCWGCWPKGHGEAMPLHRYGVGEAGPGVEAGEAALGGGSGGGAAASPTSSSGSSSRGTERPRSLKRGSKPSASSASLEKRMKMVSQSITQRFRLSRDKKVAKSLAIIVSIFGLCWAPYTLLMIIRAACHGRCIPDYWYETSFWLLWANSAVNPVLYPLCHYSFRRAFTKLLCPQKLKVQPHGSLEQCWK

Row | Ki (Histamine H3 receptor [1]) [nM] | Ki (Histamine H3 receptor [2]) [nM] | Structure (SMILES)
1 | 13 | – | CC1CCCCN1CCc1cc2cc(-c3ccc(C(=O)N4CCOCC4)cc3)ccc2o1 (configuration not stated) [(4-{2-[2-(2-Methyl-piperidin-1-yl)-ethyl]-benzofuran-5-yl}-phenyl)-morpholin-4-yl-methanone]
2 | – | 13 | O=C(c1ccc(-c2ccc3oc(CCN4CCCCC4)cc3c2)nc1)N1CCOCC1 [Morpholin-4-yl-{6-[2-(2-piperidin-1-yl-ethyl)-benzofuran-5-yl]-pyridin-3-yl}-methanone]
